Test results reported in ChEMBL document CHEMBL1255421, “In vitro fungicidal activities of echinocandins against Candida metapsilosis, C. orthopsilosis, and C. parapsilosis evaluated by time-kill studies” (2010).
Converted amounts (≈) assume the structure as drawn. The source made the active and inactive calls. No cut-off for these calls is given here. Numbered stars: 1 amine (or outer) side, 2 acyl side, 3 side chain; on linkers, the order of the positions; unused ones are H or OH. Bridge positions count the residues as written; N and C are the ends. Square brackets hold non-standard residues; d marks the D form. Peptide text beside a SMILES is read from it. * marks the point of attachment. pTerphenylCO(4''-OnC5H11) = CCCCCOc1ccc(-c2ccc(-c3ccc(C(=O)*)cc3)cc2)cc1; Orn(4R-OH,5R-OH) = O=C([C@H](C[C@@H](O)[C@@H](O)N[*:3])N[*:1])[*:2]; hTyr(3S-OH,4S-OH) = N[C@H](C(=O)O)[C@H](O)[C@@H](O)c1ccc(O)cc1; Pro(3S-OH,4S-Me) = C[C@H]1CN[C@H](C(=O)O)[C@H]1O; Hyp = O=C(O)[C@@H]1C[C@@H](O)CN1

Legend:
[1] = test system: Candida orthopsilosis; assay: Antifungal activity against Candida orthopsilosis clinical isolate bloodstream form assessed as time required for 99.9% reduction in fungal growth at 0.25 mg/L by time-kill assay; type: functional
[2] = test system: Candida orthopsilosis; assay: Antifungal activity against Candida orthopsilosis clinical isolate bloodstream form assessed as time required for 99.9% reduction in fungal growth at 1 mg/L by time-kill assay; type: functional
[3] = test system: Candida orthopsilosis; assay: Antifungal activity against Candida orthopsilosis clinical isolate bloodstream form assessed as time required for 99.9% reduction in fungal growth at 4 mg/L by time-kill assay; type: functional
[4] = test system: Candida orthopsilosis; assay: Antifungal activity against Candida orthopsilosis clinical isolate bloodstream form assessed as time required for 99.9% reduction in fungal growth at 32 mg/L by time-kill assay; type: functional
[5] = test system: Candida metapsilosis; assay: Antifungal activity against Candida metapsilosis clinical isolate bloodstream form assessed as time required for 50% reduction in fungal growth at 16 mg/L by time-kill assay; type: functional
[6] = test system: Candida metapsilosis; assay: Antifungal activity against Candida metapsilosis clinical isolate bloodstream form assessed as time required for 90% reduction in fungal growth at 0.25 mg/L by time-kill assay; type: functional
[7] = test system: Candida metapsilosis; assay: Antifungal activity against Candida metapsilosis clinical isolate bloodstream form assessed as time required for 90% reduction in fungal growth at 1 mg/L by time-kill assay; type: functional
[8] = test system: Candida metapsilosis; assay: Antifungal activity against Candida metapsilosis clinical isolate bloodstream form assessed as time required for 90% reduction in fungal growth at 4 mg/L by time-kill assay; type: functional
[9] = test system: Candida metapsilosis; assay: Antifungal activity against Candida metapsilosis clinical isolate bloodstream form assessed as time required for 90% reduction in fungal growth at 32 mg/L by time-kill assay; type: functional
[10] = test system: Candida metapsilosis; assay: Antifungal activity against Candida metapsilosis clinical isolate bloodstream form assessed as time required for 99% reduction in fungal growth at 16 mg/L by time-kill assay; type: functional
[11] = test system: Candida metapsilosis; assay: Antifungal activity against Candida metapsilosis clinical isolate bloodstream form assessed as time required for 99% reduction in fungal growth at 32 mg/L by time-kill assay; type: functional
[12] = test system: Candida parapsilosis; assay: Antifungal activity against Candida parapsilosis clinical isolate bloodstream form assessed as time required for 50% reduction in fungal growth at 16 mg/L by time-kill assay; type: functional
[13] = test system: Candida parapsilosis; assay: Antifungal activity against Candida parapsilosis clinical isolate bloodstream form assessed as time required for 90% reduction in fungal growth at 1 mg/L by time-kill assay; type: functional
[14] = test system: Candida parapsilosis; assay: Antifungal activity against Candida parapsilosis clinical isolate bloodstream form assessed as time required for 90% reduction in fungal growth at 16 mg/L by time-kill assay; type: functional
[15] = test system: Candida parapsilosis; assay: Antifungal activity against Candida parapsilosis clinical isolate bloodstream form assessed as time required for 90% reduction in fungal growth at 32 mg/L by time-kill assay; type: functional
[16] = test system: Candida parapsilosis; assay: Antifungal activity against Candida parapsilosis clinical isolate bloodstream form assessed as time required for 99% reduction in fungal growth at 16 mg/L by time-kill assay; type: functional
[17] = test system: Candida parapsilosis; assay: Antifungal activity against Candida parapsilosis clinical isolate bloodstream form assessed as time required for 99% reduction in fungal growth at 32 mg/L by time-kill assay; type: functional
[18] = test system: Candida parapsilosis; assay: Antifungal activity against Candida parapsilosis clinical isolate bloodstream form assessed as time required for 99.9% reduction in fungal growth at 0.25 mg/L by time-kill assay; type: functional
[19] = test system: Candida parapsilosis; assay: Antifungal activity against Candida parapsilosis clinical isolate bloodstream form assessed as time required for 99.9% reduction in fungal growth at 1 mg/L by time-kill assay; type: functional
[20] = test system: Candida parapsilosis; assay: Antifungal activity against Candida parapsilosis clinical isolate bloodstream form assessed as time required for 99.9% reduction in fungal growth at 16 mg/L by time-kill assay; type: functional
[21] = test system: Candida parapsilosis; assay: Antifungal activity against Candida parapsilosis clinical isolate bloodstream form assessed as time required for 99.9% reduction in fungal growth at 32 mg/L by time-kill assay; type: functional
[22] = test system: Candida metapsilosis; assay: Antifungal activity against Candida metapsilosis clinical isolate bloodstream form assessed as time required for 99.9% reduction in fungal growth at 1 mg/L by time-kill assay; type: functional
[23] = test system: Candida orthopsilosis; assay: Fungicidal activity against Candida orthopsilosis isolate CP-150 bloodstream form by CLSI method; type: functional; settings: Lodderomyces orthopsilosis
[24] = test system: Candida metapsilosis; assay: Fungicidal activity against Candida metapsilosis isolate CP-132 bloodstream form by CLSI method; type: functional; settings: Lodderomyces metapsilosis
[25] = test system: Candida parapsilosis; assay: Fungicidal activity against Candida parapsilosis isolate CP-300 bloodstream form by CLSI method; type: functional; settings: Lodderomyces parapsilosis
[26] = test system: Candida parapsilosis; assay: Fungicidal activity against Candida parapsilosis isolate CP-301 bloodstream form by CLSI method; type: functional; settings: Lodderomyces parapsilosis
[27] = test system: Candida parapsilosis; assay: Antifungal activity against Candida parapsilosis clinical isolate bloodstream form assessed as fungal count at 4 mg/L measured at 6 hrs by time-kill assay; type: functional
[28] = test system: Candida orthopsilosis; assay: Antifungal activity against Candida orthopsilosis clinical isolate bloodstream form assessed as induction of miniparadoxical effect at 32 mg/L after 48 hrs by time-kill assay; type: functional, organism-based
[29] = test system: Candida orthopsilosis; assay: Antifungal activity against Candida orthopsilosis clinical isolate bloodstream form assessed as induction of fungal killing rate at 0.03 to 32 mg/L measured at 6 hrs by time-kill assay; type: functional, organism-based
[30] = test system: Candida metapsilosis; assay: Antifungal activity against Candida metapsilosis clinical isolate bloodstream form assessed as induction of fungal killing rate at 0.03 to 32 mg/L measured at 6 hrs by time-kill assay; type: functional, organism-based
[31] = test system: Candida metapsilosis; assay: Antifungal activity against Candida metapsilosis clinical isolate bloodstream form assessed as mild induction of fungal death at 0.03 to 32 mg/L after 6 hrs by time-kill assay; type: functional, organism-based
[32] = test system: Candida orthopsilosis; assay: Antifungal activity against Candida orthopsilosis clinical isolate bloodstream form assessed as induction of maximal fungal death at 1 mg/L after 48 hrs by time-kill assay; type: functional, organism-based
[33] = test system: Candida parapsilosis; assay: Antifungal activity against Candida parapsilosis clinical isolate bloodstream form assessed as induction of maximal fungal death at 8 mg/L after 48 hrs by time-kill assay; type: functional, organism-based
[34] = test system: Candida orthopsilosis; assay: Antifungal activity against Candida orthopsilosis clinical isolate bloodstream form assessed as time required for 50% reduction in fungal growth at 16 mg/L by time-kill assay; type: functional
[35] = test system: Candida orthopsilosis; assay: Antifungal activity against Candida orthopsilosis clinical isolate bloodstream form assessed as time required for 50% reduction in fungal growth at 32 mg/L by time-kill assay; type: functional
[36] = test system: Candida orthopsilosis; assay: Antifungal activity against Candida orthopsilosis clinical isolate bloodstream form assessed as time required for 90% reduction in fungal growth at 0.25 mg/L by time-kill assay; type: functional
[37] = test system: Candida orthopsilosis; assay: Antifungal activity against Candida orthopsilosis clinical isolate bloodstream form assessed as time required for 99% reduction in fungal growth at 0.25 mg/L by time-kill assay; type: functional
[38] = test system: Candida orthopsilosis; assay: Antifungal activity against Candida orthopsilosis clinical isolate bloodstream form assessed as time required for 99% reduction in fungal growth at 1 mg/L by time-kill assay; type: functional

SMILES: CCCCCOc1ccc(-c2ccc(-c3ccc(C(=O)N[C@H]4C[C@@H](O)[C@@H](O)NC(=O)[C@@H]5[C@@H](O)[C@@H](C)CN5C(=O)[C@H]([C@@H](C)O)NC(=O)[C@H]([C@H](O)[C@@H](O)c5ccc(O)cc5)NC(=O)[C@@H]5C[C@@H](O)CN5C(=O)[C@H]([C@@H](C)O)NC4=O)cc3)cc2)cc1 [ANIDULAFUNGIN] ({pTerphenylCO(4''-OnC5H11)}-[Orn(4R-OH,5R-OH)]T[Hyp][hTyr(3S-OH,4S-OH)]T[Pro(3S-OH,4S-Me)]; lactam 1-C)
- Time [1]: >48 h
- Time [2]: >48 h
- Time [3]: 27.25 h
- Time [4]: 14.72 h
- Time [5]: 1.51 h
- Time [6]: 25.71 h
- Time [7]: 5.22 h
- Time [8]: 7.94 h
- Time [9]: 4.69 h
- Time [10]: 10.02 h
- Time [11]: 9.37 h
- Time [12]: 7.84 h
- Time [13]: inactive
- Time [14]: 26.04 h
- Time [15]: 13.95 h
- Time [16]: >48 h
- Time [17]: 27.89 h
- Time [18]: inactive
- Time [19]: inactive
- Time [20]: >48 h
- Time [21]: 41.84 h
- Time [22]: 15.67 h
- MIC [23]: 0.25 µg/mL (≈ 0.219 µM)
- MIC [24]: 0.06 µg/mL (≈ 0.0526 µM)
- MIC [25]: 0.5 µg/mL (≈ 0.438 µM)
- MIC [26]: 1 µg/mL (≈ 0.877 µM)
- log10cfu [27]: 1.48 /ml
- Activity [28]: Active
- Activity [29]: inactive
- Activity [30]: inactive
- Activity [31]: Active
- Activity [32]: Active
- Activity [33]: Active
- Time [34]: 1.88 h
- Time [35]: 1.48 h
- Time [36]: >48 h
- Time [37]: >48 h
- Time [38]: 42.28 h
